Columns and labels:
[1] = test system: tau accumulated in the brain with AD; assay: In vitro autoradiography using autopsied brain tissue of Alzheimer's disease patient; type: binding, human; details: for radioactivity accumulation in the brain tissue section of the frontal lobe / radioactivity accumulation in the brain tissue section of the temporal lobe: AD patient autopsied brain section, 370 kBq/mL, 2 hours room temperature; for nonspecific binding to the brain white matter: AD patient autopsied brain sections; for visualization of tau (autoradiography compared with tau and Aβ immunostaining): AD patient temporal lobe section, adjacent sections immunostained (AT8, BC05)
Description: (Evaluation 1) In Vitro Autoradiography Using Autopsied Brain Tissue of Alzheimer's Disease Patient (1) In Vitro Autoradiography
Autopsied brain tissue sections of an Alzheimer's disease (AD) patient (sections from a frontal lobe site and a temporal lobe site, 6 μm) were used, which were provided from Graduate School of Medicine, Kyoto University and National Cerebral and Cardiovascular Center Hospital. Deparaffinization treatment was performed by washing with xylene (15 min×2), ethanol (1 min×2), a 90 vol % aqueous ethanol solution (1 min×1), an 80 vol % aqueous ethanol solution (1 min×1), a 70 vol % aqueous ethanol solution (1 min×1), and purified water (2.5 min×2). A 10 vol % aqueous ethanol solution of each radioactive iodine-labeled BIP derivative compound (370 kBq/mL) obtained by the method shown in Example 7 was added thereto, and the tissue sections were incubated at room temperature for 2 hours. The tissue sections were washed with a 50 vol % aqueous ethanol solution (1 hr×1), then exposed to an imaging plate (BAS-SR2025 manufactured by Fujifilm Corp.), and analyzed using a bioimaging analyzer (bioimaging analyzer BAS-5000 manufactured by Fujifilm Corp.). Multi Gauge manufactured by Fujifilm Corp. was used in quantitative analysis.
FIGS. 5E and 5F show the results obtained using [^125I]BIP-NMe2. FIGS. 5G and 5H show the results obtained using [^125I]BIP-OMe. FIGS. 5I and 5J show the results obtained using [^125I]BIP-Me. FIGS. 5E, 5G, and 5I show the results obtained using the brain tissue section of the frontal lobe. FIGS. 5F, 5H, and 5J show the results obtained using the brain tissue section of the temporal lobe.
Tau and Aβ were immunostained using sections adjacent to the autopsied AD brain tissue sections used in autoradiography. An anti-phosphorylated tau monoclonal antibody (AT8, manufactured by Thermo Fisher Scientific Inc.) was used as a primary antibody in the immunostaining of tau, and an anti-Aβ1-42 monoclonal antibody (BC05, manufactured by Wako Pure Chemical Industries, Ltd.) was used as a primary antibody in the immunostaining of Aβ. Deparaffinization treatment was performed by washing with xylene (15 min×2), ethanol (1 min×2), a 90 vol % aqueous ethanol solution (1 min×1), an 80 vol % aqueous ethanol solution (1 min×1), a 70 vol % aqueous ethanol solution (1 min×1), and purified water (2.5 min×2). The antigens were retrieved by autoclaving (15 min) in a 0.01 mol/L citrate buffer solution (pH 6.0) and formic acid treatment (5 min). The tissue sections were washed with running water (5 min) and then washed with PBS-Tween 20 (2 min×1). The tissue sections were reacted with primary antibody solutions at room temperature for 1 hour and then washed with PBS-Tween 20 (5 min×3). The tissue sections were reacted with Histofine Simple Stain MAX-PO (MULTI) (manufactured by Nichirei Biosciences Inc.) at room temperature for 30 minutes and then washed with PBS-Tween 20 (3 min×3) and TBS (5 min×1). Finally, the tissue sections were reacted with a DAB solution at room temperature for 1 minute. The tissue sections were washed with distilled water (1 min×1) to terminate the reaction. The brain tissue sections were mounted on slides and then observed under a microscope (BZ-9000 manufactured by Keyence Corporation).
FIGS. 5A and 5B show the results obtained using the brain tissue section of the frontal lobe. FIGS. 5C and 5D show the results obtained using the brain tissue section of the temporal lobe. FIGS. 5A and 5C show the results of immunostaining with the antibody against tau. FIGS. 5B and 5D show the results of immunostaining with the antibody against Aβ.

[2] = Evaluation of in vivo radioactivity distribution in normal mouse; details: normal ddY male mice, tail vein; for radioactivity distribution, Blood / radioactivity distribution, Brain / radioactivity distribution, Heart / radioactivity distribution, Intestine / radioactivity distribution, Kidney / radioactivity distribution, Liver / radioactivity distribution, Lung / radioactivity distribution, Pancreas / radioactivity distribution, Spleen / radioactivity distribution, Stomach / radioactivity distribution, Thyroid gland: mean (SD)
Description: (Evaluation 2) Evaluation of In Vivo Radioactivity Distribution in Normal Mouse
Each compound of [^125I]BIP-NMe2, [^125I]BIP-OMe, and [^125I]BIP-Me synthesized according to the method shown in Example 7 was diluted with saline containing 10 vol % ethanol and 0.1 vol % Tween 80. Each radioactive iodine-labeled BIP derivative compound was administered to a group of 5-week-old ddY male mice (26 to 28 g; each group involved 5 mice) from the tail veins thereof at 19.6 to 29.4 kBq (100 μL) per mouse. After 2, 10, 30, or 60 minutes, the mice were slaughtered. After blood collection, the organs were taken out, and their weights and radioactivity were measured.
In Tables 2 to 4, the numerical values shown in the column “Time after administration” are means of % ID for the stomach and the thyroid gland and means of % ID/g for the other tissues with standard deviation (SD) shown in parenthesis.

Compound: Cc1ccn2c(c1)nc1cc([125I])ccc12 [[^125I]BIP-Me, 7-[^125I]iodo-3-methylbenzo[4,5]imidazo[1,2-a]pyridine]
- radioactivity accumulation in the brain tissue section of the frontal lobe [1]: none
- radioactivity accumulation in the brain tissue section of the temporal lobe [1]: exhibited radioactivity accumulation in only the brain tissue section of the temporal lobe
- nonspecific binding to the brain white matter [1]: low
- visualization of tau (autoradiography compared with tau and Aβ immunostaining) [1]: clearly visualizes tau accumulated in the brain with AD
- clearance from the brain [2]: rapid clearance from the brain
- transfer to the brain early after administration [2]: high transfer to the brain
- radioactivity distribution, Blood ([2]; 2 min after administration): 3.63(0.19) % ID/g
- radioactivity distribution, Brain ([2]; 2 min after administration): 4.28(0.50) % ID/g
- radioactivity distribution, Heart ([2]; 2 min after administration): 4.40(0.59) % ID/g
- radioactivity distribution, Intestine ([2]; 2 min after administration): 3.38(0.55) % ID/g
- radioactivity distribution, Kidney ([2]; 2 min after administration): 7.32(0.61) % ID/g
- radioactivity distribution, Liver ([2]; 2 min after administration): 19.7(2.89) % ID/g
- radioactivity distribution, Lung ([2]; 2 min after administration): 6.54(0.76) % ID/g
- radioactivity distribution, Pancreas ([2]; 2 min after administration): 3.85(0.39) % ID/g
- radioactivity distribution, Spleen ([2]; 2 min after administration): 4.22(0.43) % ID/g
- radioactivity distribution, Stomach ([2]; 2 min after administration): 2.68(0.25) % ID
- radioactivity distribution, Thyroid gland ([2]; 2 min after administration): 0.06(0.03) % ID
- radioactivity distribution, Blood ([2]; 10 min after administration): 2.37(0.22) % ID/g
- radioactivity distribution, Brain ([2]; 10 min after administration): 0.94(0.17) % ID/g
- radioactivity distribution, Heart ([2]; 10 min after administration): 1.61(0.19) % ID/g
- radioactivity distribution, Intestine ([2]; 10 min after administration): 14.2(5.56) % ID/g
- radioactivity distribution, Kidney ([2]; 10 min after administration): 6.75(0.83) % ID/g
- radioactivity distribution, Liver ([2]; 10 min after administration): 13.7(1.67) % ID/g
- radioactivity distribution, Lung ([2]; 10 min after administration): 2.37(0.31) % ID/g
- radioactivity distribution, Pancreas ([2]; 10 min after administration): 1.38(0.29) % ID/g
- radioactivity distribution, Spleen ([2]; 10 min after administration): 1.94(0.29) % ID/g
- radioactivity distribution, Stomach ([2]; 10 min after administration): 6.52(1.23) % ID
- radioactivity distribution, Thyroid gland ([2]; 10 min after administration): 0.03(0.02) % ID
- radioactivity distribution, Blood ([2]; 30 min after administration): 1.53(0.52) % ID/g
- radioactivity distribution, Brain ([2]; 30 min after administration): 0.14(0.03) % ID/g
- radioactivity distribution, Heart ([2]; 30 min after administration): 0.66(0.10) % ID/g
- radioactivity distribution, Intestine ([2]; 30 min after administration): 19.5(2.03) % ID/g
- radioactivity distribution, Kidney ([2]; 30 min after administration): 4.05(1.19) % ID/g
- radioactivity distribution, Liver ([2]; 30 min after administration): 7.32(0.71) % ID/g
- radioactivity distribution, Lung ([2]; 30 min after administration): 1.14(0.11) % ID/g
- radioactivity distribution, Pancreas ([2]; 30 min after administration): 0.50(0.08) % ID/g
- radioactivity distribution, Spleen ([2]; 30 min after administration): 0.60(0.13) % ID/g
- radioactivity distribution, Stomach ([2]; 30 min after administration): 7.05(2.50) % ID
- radioactivity distribution, Thyroid gland ([2]; 30 min after administration): 0.02(0.00) % ID
- radioactivity distribution, Blood ([2]; 60 min after administration): 0.77(0.12) % ID/g
- radioactivity distribution, Brain ([2]; 60 min after administration): 0.04(0.00) % ID/g
- radioactivity distribution, Heart ([2]; 60 min after administration): 0.36(0.07) % ID/g
- radioactivity distribution, Intestine ([2]; 60 min after administration): 28.7(5.09) % ID/g
- radioactivity distribution, Kidney ([2]; 60 min after administration): 2.19(1.23) % ID/g
- radioactivity distribution, Liver ([2]; 60 min after administration): 4.69(0.54) % ID/g
- radioactivity distribution, Lung ([2]; 60 min after administration): 0.65(0.11) % ID/g
- radioactivity distribution, Pancreas ([2]; 60 min after administration): 0.40(0.24) % ID/g
- radioactivity distribution, Spleen ([2]; 60 min after administration): 0.36(0.10) % ID/g
- radioactivity distribution, Stomach ([2]; 60 min after administration): 7.43(1.29) % ID
- radioactivity distribution, Thyroid gland ([2]; 60 min after administration): 0.01(0.00) % ID

Compound: CN(C)c1ccn2c(c1)nc1cc([125I])ccc12 [[^125I]BIP-NMe2, 7-[^125I]iodo-3-dimethylaminopyrido[1,2-a]benzimidazole]
- radioactivity accumulation in the brain tissue section of the frontal lobe [1]: none
- radioactivity accumulation in the brain tissue section of the temporal lobe [1]: exhibited radioactivity accumulation in only the brain tissue section of the temporal lobe
- nonspecific binding to the brain white matter [1]: low
- visualization of tau (autoradiography compared with tau and Aβ immunostaining) [1]: clearly visualizes tau accumulated in the brain with AD
- clearance from the brain [2]: rapid clearance from the brain
- transfer to the brain early after administration [2]: high transfer to the brain
- radioactivity distribution, Blood ([2]; 2 min after administration): 2.91(0.75) % ID/g
- radioactivity distribution, Brain ([2]; 2 min after administration): 3.98(0.32) % ID/g
- radioactivity distribution, Heart ([2]; 2 min after administration): 6.38(1.09) % ID/g
- radioactivity distribution, Intestine ([2]; 2 min after administration): 3.07(0.52) % ID/g
- radioactivity distribution, Kidney ([2]; 2 min after administration): 14.3(1.91) % ID/g
- radioactivity distribution, Liver ([2]; 2 min after administration): 9.78(2.50) % ID/g
- radioactivity distribution, Lung ([2]; 2 min after administration): 8.80(1.70) % ID/g
- radioactivity distribution, Pancreas ([2]; 2 min after administration): 5.66(1.03) % ID/g
- radioactivity distribution, Spleen ([2]; 2 min after administration): 2.97(0.92) % ID/g
- radioactivity distribution, Stomach ([2]; 2 min after administration): 1.71(0.43) % ID
- radioactivity distribution, Thyroid gland ([2]; 2 min after administration): 0.05(0.03) % ID
- radioactivity distribution, Blood ([2]; 10 min after administration): 1.48(0.18) % ID/g
- radioactivity distribution, Brain ([2]; 10 min after administration): 1.66(0.16) % ID/g
- radioactivity distribution, Heart ([2]; 10 min after administration): 2.53(0.24) % ID/g
- radioactivity distribution, Intestine ([2]; 10 min after administration): 7.45(0.50) % ID/g
- radioactivity distribution, Kidney ([2]; 10 min after administration): 17.0(1.70) % ID/g
- radioactivity distribution, Liver ([2]; 10 min after administration): 18.1(0.53) % ID/g
- radioactivity distribution, Lung ([2]; 10 min after administration): 3.59(0.43) % ID/g
- radioactivity distribution, Pancreas ([2]; 10 min after administration): 4.77(0.27) % ID/g
- radioactivity distribution, Spleen ([2]; 10 min after administration): 5.15(0.84) % ID/g
- radioactivity distribution, Stomach ([2]; 10 min after administration): 3.30(0.49) % ID
- radioactivity distribution, Thyroid gland ([2]; 10 min after administration): 0.03(0.01) % ID
- radioactivity distribution, Blood ([2]; 30 min after administration): 1.18(0.26) % ID/g
- radioactivity distribution, Brain ([2]; 30 min after administration): 0.38(0.03) % ID/g
- radioactivity distribution, Heart ([2]; 30 min after administration): 1.00(0.15) % ID/g
- radioactivity distribution, Intestine ([2]; 30 min after administration): 14.5(3.43) % ID/g
- radioactivity distribution, Kidney ([2]; 30 min after administration): 7.45(1.11) % ID/g
- radioactivity distribution, Liver ([2]; 30 min after administration): 12.7(1.35) % ID/g
- radioactivity distribution, Lung ([2]; 30 min after administration): 1.77(0.31) % ID/g
- radioactivity distribution, Pancreas ([2]; 30 min after administration): 1.51(0.19) % ID/g
- radioactivity distribution, Spleen ([2]; 30 min after administration): 2.97(0.44) % ID/g
- radioactivity distribution, Stomach ([2]; 30 min after administration): 6.35(1.13) % ID
- radioactivity distribution, Thyroid gland ([2]; 30 min after administration): 0.02(0.01) % ID
- radioactivity distribution, Blood ([2]; 60 min after administration): 0.93(0.23) % ID/g
- radioactivity distribution, Brain ([2]; 60 min after administration): 0.16(0.01) % ID/g
- radioactivity distribution, Heart ([2]; 60 min after administration): 0.63(0.05) % ID/g
- radioactivity distribution, Intestine ([2]; 60 min after administration): 23.5(3.65) % ID/g
- radioactivity distribution, Kidney ([2]; 60 min after administration): 5.45(1.90) % ID/g
- radioactivity distribution, Liver ([2]; 60 min after administration): 5.82(0.91) % ID/g
- radioactivity distribution, Lung ([2]; 60 min after administration): 0.99(0.07) % ID/g
- radioactivity distribution, Pancreas ([2]; 60 min after administration): 0.80(0.15) % ID/g
- radioactivity distribution, Spleen ([2]; 60 min after administration): 1.97(0.25) % ID/g
- radioactivity distribution, Stomach ([2]; 60 min after administration): 7.59(1.39) % ID
- radioactivity distribution, Thyroid gland ([2]; 60 min after administration): 0.01(0.00) % ID

From patent US10081630B2, “Radioactive halogen-labeled pyrido [1,2-A] benzimidazole derivative compound” (KYOTO UNIVERSITY, priority 2015, dated 2018)
